Biological target: T1, HIV-1 Vif protein (Vif-Vif interaction) (Human immunodeficiency virus type 1 group M subtype B, UniProt P12504)
T1 construct: The vif gene also was inserted into pGEX vector for in vitro expression and isolation of GST-Vif fusion protein; The PCR-generated wild-type vif gene and its mutants were then inserted into pCITE-4a vector; made in house; host or cells: GST-Vif: E. coli BL21 (pGEX); 35S-Vif: in vitro translation from pCITE-4a (Novagen kit)
Type: binding
Conditions: for 35S-Vif binds with GST-Vif (%) Mean ± SD: peptide added to the Vif-Vif binding reaction, no peptide (GST pull-down) designated as 100%; for Inhibition of Vif-Vif interaction (in words): synthesized peptides added into the reaction system for Vif-Vif binding, in vitro
Protocol: The vector pGEX, with or without the vif gene, was transformed into BL21 competent cells (Novagen, Madison, Wis.). After growth at 37° C. to approximately 0.6 O.D., the expression of GST or GST-Vif proteins was induced by 0.4 mM isopropylthio-β-D-galactoside (IPTG). The bacterial cells were lyzed by adding lysing buffer (1% Triton-X-100, 0.1 mg/ml lysozyme, 2 mM EDTA, 1 mM PMSF, 2 μg/ml leupeptin, and 1 μg/ml aprotinin), followed by sonication. The sample was pelleted at 12,000 g for 10 min at 4° C., and the supernatant was applied to a glutathione-conjugated agarose bead (Sigma, St. Louis, Mo.) column. After batch binding, the matrix was washed three times, each time by the addition of 10 bed volumes of phosphorus-buffer saline (PBS). The GST or GST-Vif conjugated agarose beads were then aliquoted and stored at −20° C. Conversely, ^35S-labeled Vif or its mutant proteins were synthesized utilizing SPT3 kits (Novagen, Madison, Wis.). The protocol supplied by the manufacturer was followed. After in vitro translation, RNase A (0.2 mg/ml) was added to stop the reaction and remove tRNAs and the in vitro transcribed mRNA. The trichloroacetic acid (TCA)-insoluble radioactive amino acids were quantitated in the presence of a scintillation cocktail.
For GST pull-down assays, a GST or GST-Vif conjugated bead slurry was mixed with ^35S-labeled Vif or its mutants (50,000 cpm) in a binding buffer [150 mM NaCl, 20 mM Tris-HCl (pH 7.5), 0.1% Triton-X-100]. After binding at 4° C. for 1 hour, the mixture was centrifuged at 3,000 g for 1 min, and the beads were washed three times with binding buffer. The ^35S-labeled Vif proteins were dissociated from the beads by adding SDS-containing loading buffer and heating at 95° C. for 5 minutes. The samples were then electrophoresized in SDS-PAGE gels (15% Tris-HCl ready gel made by Bio-Rad, Hercules, Calif.). After treatment with the fixing buffer (10% acetic acid, 10% methanol) and then the Amplify (Amersham-Pharmacia, Piscataway, N.J.), the gels were dried and exposed to X-ray film or quantitatively analyzed utilizing phosphor image (Molecular Dynamics, Sunnyview, Calif.).
A Vif-Vif binding assay was similar to the GST pull-down assays, except that the GST or GST-Vif conjugated bead slurry was mixed with ^35S-labeled Vif and the test peptides or molecules in the binding buffer. The results were compared to that from the GST pull-down assay, which was designated as 100%.

T1 sequence (P12504 whole entry, the tested form may be a part): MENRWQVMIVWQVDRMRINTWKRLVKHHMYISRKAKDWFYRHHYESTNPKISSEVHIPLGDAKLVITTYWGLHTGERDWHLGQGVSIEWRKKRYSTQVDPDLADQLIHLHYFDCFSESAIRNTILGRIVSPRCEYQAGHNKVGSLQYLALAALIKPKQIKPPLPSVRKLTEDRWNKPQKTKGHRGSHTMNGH

Row | Sequence | 35S-Vif binds with GST-Vif (%) Mean ± SD | Inhibition of Vif-Vif interaction (in words)
1 | ESAIRKAILGHIVSP [Vif117-131] | 94.5 ± 11.2% | 
2 | KKIKPPLPSVTKLTE [Vif157-171] | 49.2 ± 2.5% | able to inhibit the Vif-Vif interaction
3 | KPKKIKPPLPSV [Vif155-166] | 57.1 ± 8.7% | able to inhibit the Vif-Vif interaction
4 | LPLPAPSFHRTT [VMI9] | 22.0 + 6.2% | significantly inhibit Vif-Vif interaction
5 | PPLPSVTKLTEDRWN [Vif161-175] | 70.2 ± 5.5% | able to inhibit the Vif-Vif interaction
6 | SNQGGSPLPRSV [VMI7] | 19.0 ± 2.2% | significantly inhibit Vif-Vif interaction
7 | SVSVGMKPSPRP (Synthetic peptide containing PXP motif) [VMI5, 12-mer peptide containing a PXP motif] | 36.3 ± 5.1% | 
